In ChEMBL document CHEMBL1129098, “Structure-activity dependency of new bacterial tryptophanyl tRNA synthetase inhibitors” (Bioorg Med Chem Lett, 1996):
Values after ≈ are worked out from the molar mass of the structure shown.

Tests used:
[1] = tested on: Staphylococcus aureus; experiment: Antibacterial activity against Staphylococcus aureus; type: functional
[2] = Inhibition of tryptophanyl tRNA synthetase isolated from Staphylococcus aureus

| SMILES | MIC [1] [mg/L] | I50 [2] [ng/mL] |
| --- | --- | --- |
| CNC1=NC(=O)[C@H]([C@H](CC(=O)OC(C)(C)C)c2c[nH]c3ccccc23)O1 | > 512 | > 100000 |
| CNC1=NC(=O)[C@H](C(C)(C)c2c[nH]c3ccccc23)O1 | 32 (≈ 118 µM) | 580 |
| CNC1=NC(=O)[C@H]([C@H](CN)c2c[nH]c3ccccc23)O1 | > 512 | > 100000 |
| CNC1=NC(=O)[C@H]([C@@H](O)c2c[nH]c3ccccc23)O1 | > 64 | 44000 |
| CNC1=NC(=O)[C@H]([C@@H](C)c2c[nH]c3ccccc23)O1 | 8 (≈ 31.1 µM) | 500 |
| CNC1=NC(=O)[C@H]([C@@H](CC(=O)OC(C)(C)C)c2c[nH]c3ccccc23)O1 | > 512 | > 100000 |
| CC[C@@H](c1c[nH]c2ccccc12)[C@@H]1OC(NC)=NC1=O | > 512 | 22000 |
| CNC1=NC(=O)[C@H]([C@H](C[N+](=O)[O-])c2c[nH]c3ccccc23)O1 | 64 (≈ 212 µM) | 2300 |
| CC[C@H](c1c[nH]c2ccccc12)[C@@H]1OC(NC)=NC1=O | 64 (≈ 236 µM) | 250 |
| CNC1=NC(=O)[C@](C)([C@H](C)c2c[nH]c3ccccc23)O1 | 64 (≈ 236 µM) | 1200 |
| CNC1=NC(=O)[C@H]([C@@H](CC(=O)O)c2c[nH]c3ccccc23)O1 | > 512 | > 100000 |
| CNC1=NC(=O)[C@H]([C@H](CC(=O)O)c2c[nH]c3ccccc23)O1 | > 512 | > 100000 |
| CNC1=NC(=O)[C@H]([C@](C)(O)c2c[nH]c3ccccc23)O1 | > 64 | > 100000 |
| CNC1=NC(=O)[C@H]([C@@](C)(O)c2c[nH]c3ccccc23)O1 | 0.25 (≈ 0.915 µM) | 46 |
| CNC1=NC(=O)[C@H]([C@H](/C=N\O)c2c[nH]c3ccccc23)O1 | > 512 | > 100000 |
| CNC1=NC(=O)[C@](C)([C@@H](C)c2c[nH]c3ccccc23)O1 | > 512 | > 100000 |
| CNC1=NC(=O)[C@H]([C@@H](C[N+](=O)[O-])c2c[nH]c3ccccc23)O1 | > 64 | > 100000 |
| CNC1=NC(=O)[C@H](Cc2c[nH]c3ccccc23)O1 | 64 (≈ 263 µM) | 1550 |
| CNC1=NC(=O)[C@H]([C@H](O)c2c[nH]c3ccccc23)O1 | > 64 | 4000 |
| CNC1=NC(=O)[C@H]([C@H](C)c2c[nH]c3ccccc23)O1 [INDOMYCIN] | 0.125 (≈ 0.486 µM) | 16 |
